Assay results as given in patent US8242087B2, “Phosphate modified nucleosides useful as substrates for polymerases and as antiviral agents” (priority 2007, dated 2012).

Key:
[1] = molecular target: Taq DNA polymerase (Thermus aquaticus, UniProt P19821); test: Single nucleotide incorporation by Taq DNA polymerase; assay type: biochemical
Experimental: Reaction conditions: Primer (P1) was 5′-labeled with ^33P followed by annealing to a template T1; 125 nM primer/template (P1/T1), [Taq]=0.005 U/μL, [Vent]=0.005 U/μL, [KF]=0.05 U/μL; time intervals: 5, 15, 30, 60, 90 and 120 minutes.
In the case of Therminator DNA polymerase, the enzyme was obtained from Westburg (NEB) (2 U/μL) and the reactions were carried out in a 10× Thermopol reaction buffer containing 20 mM TRIS.HCl, 10 mM KCl, 2 mM MgSO4, 0.1% Triton X-100, pH 8.8. The final concentration of the Therminator DNA pol in the reaction mixture was 8.33×10^−4 U/μL. The polymerase reaction involving Therminator DNA polymerase or any other thermostable polymerase (Vent (exo^−), Taq DNA polymerase) was carried out in a similar way as the HIV RT reaction with some modifications. The dNTP solutions and the primer/template/DNA polymerase mixture solutions were topped with mineral oil (30-60 μL) and pre-incubated at 70° C. for 2 minutes. The polymerase reactions were performed at 70° C. as well.

[2] = molecular target: T1, HIV RT (Human immunodeficiency virus type 1 group M subtype B, UniProt P03366); test: Primer extension by HIV RT (P1/T3, P1/T5); assay type: biochemical, HIV-1; conditions: T3 template
T1 construct: HIV RT polymerase was purchased from GE Healthcare; purchased GE Healthcare (Amersham Bioscience)
Experimental: A typical single nucleotide incorporation and primer extension assays using HIV RT polymerase was carried out similar to one described in the literature. HIV RT polymerase was purchased from GE Healthcare and was supplied as either 12 or 30 U/μL stock solution. The final concentration of HIV RT in a reaction mixture was 0.03-0.003 U/μL. A primer/template duplex mixture was prepared by combining appropriate amounts of a 5′-^33P-labeled primer (P1) and a template in 1:2 molar ratio to provide a 4× solution with 0.5 μM primer concentration. The polymerase reactions were carried out in a 5×RT buffer containing 250 mM TRIS.HCL, 250 mM KCl, 50 mM MgCl2, 2.5 mM spermidine, 50 mM DTT, pH 8.3. For the single nucleotide incorporation assay, a P1/T1 primer-template pair was used whereas the primer extension study was performed with P1/T3 and P1/T5 primer-template pairs.
Primer extension study with HIV RT and Therminator DNA polymerase was performed in a fashion similar to the single nucleotide incorporation experiments. Two sets of primer/template complexes were used: P1/T3 and P1/T5.

[3] = molecular target: T1, HIV RT; test: Steady state kinetics of single nucleotide incorporation by HIV RT (P1/T1); assay type: biochemical, HIV-1
Experimental: The steady steate kinetics of a single nucleotide incorporation of an amino acid phosphoramidate (AA-dAMP) and of a natural nucleoside triphosphate (dATP) was determined by the gel-based polymerase assay. In all the experiments, the template T1 and the primer P1 were used (Table 1). The primer and template in 1:2 molar ratio were hybridized in a buffer containing 20 mM TRIS.HCl, 10 mM KCl, 2 mM MgSO4, 0.1% Triton X-100, pH 8.8 and used in an amount to provide 125 nM concentration of the primer in each 12 μL reaction. The range of concentrations for amino acid phosphoramidates was optimized according to a Km value for the incorporation of an individual nucleotide. In the case of HIV RT (Amersham Bioscience (GE Healthcare), 30 U/μL), reaction mixtures containing the enzyme in concentration to attain 5-20% conversion and appropriate substrate concentration (nucleoside phosphoramidate or natural dNTP) were incubated at 37° C. and run for 8-10 different time intervals. Kinetic analysis of single nucleotide incorporation by Therminator DNA polymerase (NEB, 2 U/μL) was performed similarly except the incubations and polymerase reactions, which were carried out at 70° C. To prevent solvent condensation/evaporation, the reaction mixtures were topped with mineral oil. The reactions were quenched by addition of the buffer containing 80% formamide, 2 mM EDTA, 1×TBE buffer. The analysis of polymerase reactions was performed by polyacrylamide gel electrophoresis (20% (19:1 mono:bis), 7M urea, 30 cm×40 cm×0.4 mm). The relative band intensities were measured using OptiQuant software. The rates of incorporation (V) were calculated based on the percentage of the extension production (n+1 band). The kinetic parameters (Vmax and Km) were determined by plotting V (pmol/min·U) versus substrate concentration and fitting the data point to a rectangular hyperbola using GraphPad Prism software.

[4] = molecular target: T2, HIV reverse transcriptase (Human immunodeficiency virus type 1 group M subtype B, UniProt P03366); test: Gel-based single-nucleotide-incorporation and control assays with HIV RT (Example 4); assay type: biochemical, HIV-1
T2 construct: performed for the enzyme HIV reverse transcriptase (GE Healthcare, 30 U/4 stock solution); purchased GE Healthcare
Experimental: End-labeled primers were annealed to their template by combining primer and templates in a molar ratio of 1:2 and heating the mixture to 70° C. for 10 minutes, followed by slow cooling to room temperature over a period of 2.5 hours. For the incorporation of L-Asp-dGMP (9), L-Asp-dTMP (10), L-Asp-dCMP (11), and N-Me-Asp-dAMP (12) (see FIG. 13), the primer P1 was annealed to templates T1, T2, T4 or A and P2 was annealed to T4. A series of 20 μL reactions was performed for the enzyme HIV reverse transcriptase (GE Healthcare, 30 U/4 stock solution). The final mixture contained 125 nM primer-template complex, RT buffer (250 mM TrisHCl, 250 mM KCl, 50 mM MgCl2, 2.5 mM spermidine, 50 mM DTT, pH 8.3), 0.03 U/μL HIV RT and different amino acid phosphoramidates building blocks concentrations. In the control reaction with the natural nucleotide, 10 μM or 50 μM dGTP, dTTP, dATP or dCTP were used. The mixture was incubated at 37° C. […] and aliquots were quenched after 5, 10, 20, 30, 60 and 120 minutes respectively.
All polymerase reactions (3 μL) were quenched by the addition of 10 μL of loading buffer (90% formamide, 0.05% bromophenol blue, 0.05% xylene cyanol and 50 mM EDTA). Samples were heated at 70° C. for 5 minutes prior to analysis by electrophoresis for 2-3 hours at 2000 V on a 0.4 mm 20% denaturing gel in the presence of a 100 mM Tris-borate, 2.5 mM EDTA buffer, pH 8.3. Products were visualized by phosphor imaging. The amount of radioactivity in the bands corresponding to the products of enzymatic reactions was determined by using the Optiquant image analysis software (Perkin Elmer).

[5] = molecular target: T2, HIV reverse transcriptase; test: as above; assay type: biochemical, HIV-1; conditions: P1/T2; 9 incorporated first (two hours), then compound 1 added, two more hours

Chain of Taq DNA polymerase (P19821 whole entry): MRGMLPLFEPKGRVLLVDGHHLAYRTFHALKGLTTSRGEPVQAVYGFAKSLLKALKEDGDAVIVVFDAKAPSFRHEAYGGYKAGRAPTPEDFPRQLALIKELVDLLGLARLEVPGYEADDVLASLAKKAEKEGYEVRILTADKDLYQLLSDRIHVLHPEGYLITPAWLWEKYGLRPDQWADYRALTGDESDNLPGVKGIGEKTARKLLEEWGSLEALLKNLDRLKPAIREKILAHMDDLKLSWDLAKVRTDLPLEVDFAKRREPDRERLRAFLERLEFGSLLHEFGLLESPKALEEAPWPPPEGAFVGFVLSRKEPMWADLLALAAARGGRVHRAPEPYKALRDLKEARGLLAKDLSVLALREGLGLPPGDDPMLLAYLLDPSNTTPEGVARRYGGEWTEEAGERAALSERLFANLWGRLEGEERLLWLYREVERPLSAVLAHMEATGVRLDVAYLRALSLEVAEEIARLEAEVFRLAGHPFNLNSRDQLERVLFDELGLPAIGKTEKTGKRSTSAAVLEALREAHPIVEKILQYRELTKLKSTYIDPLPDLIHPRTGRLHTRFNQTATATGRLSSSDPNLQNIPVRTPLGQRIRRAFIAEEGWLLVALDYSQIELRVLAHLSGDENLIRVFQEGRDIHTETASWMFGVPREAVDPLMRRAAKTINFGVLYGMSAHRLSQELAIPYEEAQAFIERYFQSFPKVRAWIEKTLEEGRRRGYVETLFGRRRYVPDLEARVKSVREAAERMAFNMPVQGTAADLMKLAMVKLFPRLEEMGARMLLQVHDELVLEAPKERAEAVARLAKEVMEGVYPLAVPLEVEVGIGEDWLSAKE

2′-deoxy-adenosine-5′-aspartyl-phosphoramidate [Compound 1]
insertion into a growing primer strand [1]: failed to insert | primer extension product [2]: extend a primer with three adenine nucleobases (n+3 product) | (n+3) product ([2]; 60 minutes, 500 μM substrate): 5.2% | n+2 product ([2]; 60 minutes, 500 μM substrate): 56.3% | Km, fold higher as compared to dATP [3]: 400 fold | Vmax, fold lower than natural substrate dATP [3]: 3 fold | specificity (Vmax/Km), fold reduced vs natural substrate [3]: 1300 fold | Km ([3]; P1/T1, 37° C.): 185 ± 24.5 µM | Vmax ([3]; P1/T1, 37° C.): 2.63 ± 0.13 pmol/min · U | base-pairing selectivity of incorporation ([4]; P1/T1): inserted selectively against thymine | incorporation with blunt ended duplex ([4]; primer P1, template A): none of these compounds incorporated at all | n+1 product [5]: 20% | n+2 product [5]: 80%
